How the values were obtained:
[1] = target: T1, Scn-Ngal (Homo sapiens, UniProt P80188); assay type: binding; conditions: for iron retention by Scn-Ngal, dose-response: urinary compounds 0.5–100 µM, Scn-Ngal 10 µM
[2] = system: C57BL/6 mice; assay type: in vivo, mouse; conditions: for cleared in the urine: by 180 min after introduction; for organ distribution: i.p., 20 and 180 min
[3] = target: T1, Scn-Ngal; experiment: Fluorescence quenching analysis of Scn-Ngal with free catechol ligands; assay type: binding; conditions: with iron III versus catechol itself
[4] = Stability of catechol in solution monitored by NMR; conditions: monitored for 20 hrs by NMR, D2O
[5] = target: T1, Scn-Ngal; experiment: Release of ligands from Scn-Ngal on acidification; assay type: binding; conditions: acidification from neutral pH; n = 3
[6] = target: Scn-Ngal K125A, K134A mutant (Homo sapiens, UniProt P80188, K145A/K154A); experiment: 55Fe retention by Scn-Ngal K125A, K134A mutant; assay type: binding; conditions: K125 and K134 mutated to alanine, versus wild type
Chain of Scn-Ngal K125A, K134A mutant (P80188 21-198 K145A/K154A): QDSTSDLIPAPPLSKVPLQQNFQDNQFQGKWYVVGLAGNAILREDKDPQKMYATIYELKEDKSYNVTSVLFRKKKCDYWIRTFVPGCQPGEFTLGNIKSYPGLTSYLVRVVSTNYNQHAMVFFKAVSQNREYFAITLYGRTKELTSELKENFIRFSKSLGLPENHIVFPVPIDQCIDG

[7] = system: embryonic kidney FoxD1+ stromal cells; experiment: Capture of 55Fe from Scn-Ngal:catechol:55Fe by kidney stromal cells; assay type: cell-based, mouse; conditions: 37°C, bafilomycin 0.15 nmole, 3 hrs
[8] = system: kidney proximal tubule LLCPK1 cells; experiment: Capture of 55Fe from Scn-Ngal:catechol:55Fe by LLCPK cells; assay type: cell-based; conditions: 37°C
[9] = system: LLCPK cells; experiment: Iron responsive 5'IRE-YFP reporter in LLCPK cells; assay type: cell-based; conditions: 100 or 500 µg/ml, 16 hrs, compared to DMEM alone
[10] = Generation of hydroxyl radicals; assay type: biochemical; conditions: 10 µM FeCl3, 30 µM catechols, 2 mM H2O2; Scn-Ngal 10 µM where added

Molecule: Oc1ccccc1O [Catechol, benzene-1,2-diol]
- iron retention by Scn-Ngal, dose-response [1]: saturable iron retention
- cleared in the urine [2]: 80.56±8.8%
- increase in binding affinity in the presence of iron III [3]: 100 fold
- stability in solution [4]: stable in solution
- pH at which Scn-Ngal:ligand:FeIII complex dissociated [5]: 6.0

Molecule: O=C(N[C@H]1COC(=O)[C@@H](NC(=O)c2cccc([O-])c2[O-])COC(=O)[C@@H](NC(=O)c2cccc([O-])c2[O-])COC1=O)c1cccc([O-])c1[O-].[Fe+3] [Ent:Fe]
- capture of siderophore:Fe by mutant Scn-Ngal [6]: ineffective

Molecule: Oc1cccc(O)c1O [Pyrogallol, benzene-1,2,3-triol]
- iron retention by Scn-Ngal, dose-response [1]: saturable iron retention
- pH at which Scn-Ngal:ligand:FeIII complex dissociated [5]: < 4

Molecule: Cc1ccc(O)c(O)c1 [4-methylcatechol, 4-methylbenzene-1,2-diol]
- iron retention by Scn-Ngal, dose-response [1]: saturable iron retention

Molecule: Cc1cccc(O)c1O [3-methylcatechol, 3-methylbenzene-1,2-diol]
- iron retention by Scn-Ngal, dose-response [1]: saturable iron retention
- pH at which Scn-Ngal:ligand:FeIII complex dissociated [5]: 6.0

Molecule: O=C(N[C@H]1COC(=O)[C@@H](NC(=O)c2cccc(O)c2O)COC(=O)[C@@H](NC(=O)c2cccc(O)c2O)COC1=O)c1cccc(O)c1O [Ent, reference compound]
- association of urinary catechols with Scn-Ngal in presence of competitor ([1]; 50 fold molar excess of Ent presaturated with non-radioactive iron): blocked

Molecule: transferrin:iron: iron-loaded transferrin, comparator [reference compound]
- organ distribution [2]: accumulated in the bone marrow

Molecule: bafilomycin [reference compound]
- 55Fe uptake [7]: inhibited

B1: Scn-Ngal:catechol:Fe: complex of the lipocalin Scn-Ngal with catechol and iron (protein, UniProt P80188 21-198, looked up)
Neutrophil …: QDSTSDLIPAPPLSKVPLQQNFQDNQFQGKWYVVGLAGNAILREDKDPQKMYATIYELKEDKSYNVTSVLFRKKKCDYWIRTFVPGCQPGEFTLGNIKSYPGLTSYLVRVVSTNYNQHAMVFFKKVSQNREYFKITLYGRTKELTSELKENFIRFSKSLGLPENHIVFPVPIDQCIDG
modifications: complex with catechol and iron
- cleared in the urine [2]: 56.4±6.7%
- organ distribution [2]: targeted the kidney
- 55Fe uptake [8]: Uptake occurred
- iron dependent YFP probe [9]: activated
- 55Fe uptake [7]: Uptake occurred

B2: Scn-Ngal: Neutrophil Gelatinase Associated Lipocalin, recombinant, expressed in BL-21 bacteria (protein, UniProt P80188 21-198, looked up)
Neutrophil …: B1 Neutrophil …
- conversion of HPF to fluorescein (hydroxyl radical formation) [10]: blocked the reaction
